Laboratory results: patent US20190022225A1, “PROTOCOL FOR INCREASING LIFE EXPECTANCY IN A TEST SUBJECT” (Mayo Foundation for Medical Education and Research, priority 2015, published 2019)

Tests used:
[1] = system: doxorubicin-induced senescent foreskin fibroblasts (HCA2) and aortic endothelial cells (Endo Aort); assay: Cell count survival assay of Nutlin-3a on doxorubicin-induced senescent cells; format: cell-based; settings: doxorubicin 250 nM 24 h; HCA2 9 days, aortic endothelial cells 11 days of Nutlin-3a
Method: Foreskin fibroblast cell lines HCA2 and BJ, lung fibroblast cell line IMR90, and mouse embryonic fibroblasts were seeded in six-well plates and induced to senesce with 10 Gy of ionizing radiation (IR) or a 24 hr treatment with doxorubicin (Doxo). Senescent phenotype was allowed to develop for at least 7 days, at which point a cell count was made to determine the baseline number of cells. Nutlin-3a treatment was then initiated for a period of at least 9 days. Media alone or media with drug as appropriate was refreshed at least every three days. At the end of the assay time period, cells are counted. Each condition was seeded in three plate wells and counted independently. Initial cell count serves as a control to determine the induction of senescence, as compared to the last day count without nutlin treatment. Initial non-senescent cell count serves as a proxy to determine Nutlin-3a toxicity.
Foreskin fibroblasts (HCA2) and aortic endothelial cells (Endo Aort) were treated with doxorubicin (250 nM) for one day (24 hours) to induce senescence (see FIG. 1). Eight days following doxorubicin treatment, Nutlin-3a treatment was initiated. HCA2 cells were exposed to Nutlin-3a for 9 days, and aortic endothelial cells were exposed to Nutlin-3a for 11 days. […] Percent survival was calculated as [cell count on the last day of Nutlin-3a treatment/initial cell count on first day of Nutlin-3a treatment].

[2] = system: IL-6 in senescent IMR90 cells; assay: IL-6 immunofluorescence and ELISA in irradiated senescent IMR90 cells treated with Nutlin-3a; format: cell-based, human
Method: Primary human fibroblast (IMR90) cells were induced to senesce by applying 10 Gy of irradiation. Seven days after irradiation (Day 0), cells were treated with 10 μM Nutlin-3a or vehicle (DMSO) for nine days (Day 9). The drug or vehicle was refreshed every three days. Drug/vehicle was removed at Day 9 and the cells were cultured for an additional three days (Day 12). Cells were then fixed with 4% paraformaldehyde and stained by immunofluorescence with a specific anti-IL-6 antibody (R&D, AF-206-NA). Cells were counterstained with DAPI for nuclear visualization. The percent IL-6 positive cells is illustrated in FIG. 12A. IL-6 positive cells were determined in an unbiased manner using CellProfiler software. Three different cultures were assessed. Non-senescent cells had no detectable cells IL-6 production while senescent cells were about 8% positive at day 9 after vehicle (DMSO) treatment (16 days after irradiation). […] At day 12, 3 days after Nutlin-3a was removed and 19 days after irradiation, IL-6 positive cells in the vehicle control were about 9% and Nutlin3a treated cells were less than 1% positive for IL-6.
In another experiment, IMR90 cells were induced to senesce by irradiation (10 Gy). Seven days after irradiation, cells were treated with 10 μM Nutlin-3a or vehicle (DMSO) for nine days (Day 9). The drug or vehicle was refreshed every three days. Drug/vehicle was removed at Day 9 and the cells were cultured for an additional six days. Conditioned media from the treated cells was collected, and IL-6 measurement by ELISA was performed (Perkin Elmer, AL223F). IL-6 levels in culture media were determined by ELISA using a kit according to manufacturer's instructions (AL223F, Perkin Elmer). Cells were fixed with 4% paraformaldehyde and stained by immunofluorescence with a specific anti-IL-6 antibody (R&D, AF-206-NA). The IL-6 level determined by ELISA was normalized to the number of cells in each well. The data are presented in FIG. 22C as a relative level of IL-6 in the treated cells compared to the level in non-senescent cells (NS). […]

LDLR−/− mice fed a HFD = assay: Atherosclerosis model, LDLR-/- mice on high fat diet treated with Nutlin-3A; format: in vivo, mouse
Text: Schematics of two atherosclerosis mouse models are presented in FIGS. 43A-B. The study illustrated in FIG. 43A assessed the extent to which clearance of senescent cells from plaques in LDLR^−/− mice with Nutlin-3A reduces plaque load. Two groups of LDLR^−/− mice (10 weeks) are fed a high fat diet (HFD) (Harlan Teklad TD.88137) having 42% calories from fat, beginning at Week 0 and throughout the study. Two groups of LDLR^−/− mice (10 weeks) are fed normal chow (−HFD). From weeks 0-2, one group of HFD mice and −HFD mice are treated with Nutlin-3A (25 mg/kg, intraperitoneally). One treatment cycle is 14 days treatment, 14 days off. Vehicle is administered to one group of HFD mice and one group of −HFD mice. At week 4 (timepoint 1), one group of mice are sacrificed and to assess presence of senescent cells in the plaques. For the some of the remaining mice, Nutlin-3A and vehicle administration is repeated from weeks 4-6. At week 8 (timepoint 2), the mice are sacrificed and to assess presence of senescent cells in the plaques. The remaining mice are treated with Nutlin-3A or vehicle from weeks 8-10. At week 12 (timepoint 3), the mice are sacrificed and to assess the level of plaque and the number of senescent cells in the plaques.
Plasma lipid levels were measured in LDLR^−/− mice fed a HFD and treated with Nutlin-3A or vehicle at timepoint 1 as compared with mice fed a −HFD (n=3 per group). Plasma was collected mid-afternoon and analyzed for circulating lipids and lipoproteins.
At the end of timepoint 1, LDLR^−/− mice fed a HFD and treated with Nutlin-3A or vehicle were sacrificed (n=3, all groups), and the aortic arches were dissected for RT-PCR analysis of SASP factors and senescent cell markers. Values were normalized to GAPDH and expressed as fold-change versus age-matched, vehicle-treated LDLR^−/− mice on a normal diet.
At the end of timepoint 2, LDLR^−/− mice fed a HFD and treated with Nutlin-3A or vehicle (n=3 for all groups) were sacrificed, and aortic arches were dissected for RT-PCR analysis of SASP factors and senescent cell markers. Values were normalized to GAPDH and expressed as fold-change versus age-matched, vehicle-treated LDLR^−/− mice on a normal diet.
At the end of timepoint 3, LDLR^−/− mice fed a HFD and treated with Nutlin-3A or vehicle (n=3 for all groups) were sacrificed, and aortas were dissected and stained with Sudan IV to detect the presence of lipid. Body composition of the mice was analyzed by MRI, and circulating blood cells were counted by Hemavet. […] As shown in FIGS. 48A-B, the platelet and lymphocyte counts were equivalent between the Nutlin-3A and vehicle treated mice.

Structure (SMILES): COc1ccc(C2=N[C@@H](c3ccc(Cl)cc3)[C@@H](c3ccc(Cl)cc3)N2C(=O)N2CCNC(=O)C2)c(OC(C)C)c1 [Nutlin-3a]
- sensitivity of doxorubicin-induced senescent cells (percent survival) [1]: sensitive
- IL-6 level (ELISA), fold lower than DMSO treated senescent cells ([2]; 10 μM for 9 days, then up to 6 days without drug): 5-9 fold
- percent IL-6 positive cells ([2]; 10 μM, day 9 (16 days after irradiation)): below 5%
- percent IL-6 positive cells ([2]; day 12, 3 days after drug removal): less than 1%
- expression of SASP factors and senescent cell markers in aortic arch (LDLR−/− mice fed a HFD; after 1 treatment cycle (25 mg/kg ip, 14 days on, 14 days off)): reduced expression of several SASP factors and senescent cell markers
- expression of SASP factors and senescent cell markers in aortic arch (LDLR−/− mice fed a HFD; multiple treatment cycles (timepoint 2)): reduced expression of most markers
- platelet and lymphocyte counts versus vehicle (LDLR−/− mice fed a HFD; timepoint 3): equivalent
- mass and body fat composition (LDLR−/− mice fed a HFD; timepoint 3, HFD): decreased mass and body fat composition
- reduction of plaques in the descending aorta (LDLR−/− mice fed a HFD; timepoint 3, three treatment cycles, Sudan IV staining): ~45%
